In article PMC11509005, “Synthesis, Cytotoxicity, and Mechanistic Evaluation of Tetrahydrocurcumin-Amino Acid Conjugates as LAT1-Targeting Anticancer Agents in C6 Glioma Cells” (International Journal of Molecular Sciences, 2024):
Where two headings read alike, the source gives them in different places.

Assays:
C6 glioma cells [1] = experiment: MTT cytotoxicity in C6 glioma cells; assay type: cell-based
Experimental: (§1) C6 glioma cells and BJ fibroblast cells (ATCC, Manassas, VA, USA) were used as models for brain cancer and normal cells, respectively. The cells were cultured in DMEM media (Sigma–Aldrich, St. Louis, MO, USA) supplemented with 10% fetal bovine serum (Merck Millipore, Burlington, MA, USA) and 1% penicillin-streptomycin (Caisson Labs, Smithfield, UT, USA). The cells were maintained in an incubator with 5% CO2 at 37 °C and 95% humidity.
(§2) Cell viability was assessed using the 3-(4,5-dimethylthiazol-2-yl)-2,5-diphenyltetrazolium bromide (MTT) assay (Sigma–Aldrich, St. Louis, MO, USA). Cells were seeded in 96-well plates at a density of 2 × 10^4 cells/well and incubated for 24 h. The cells were then treated with various concentrations of THC and equimolar concentrations of THC-amino acid conjugates (0, 31.25, 62.5, 125, 250, and 500 μM) for 24 and 48 h in cancer cells, and for 24 h in normal cells. After treatment, the media were removed and replaced with MTT solution (0.5 mg/mL), followed by incubation for 3 h. The resulting formazan crystals were dissolved in DMSO (Sigma–Aldrich, St. Louis, MO, USA). Absorbance was measured using a microplate reader at a wavelength of 570 nm (CLARIOstar®, BMG Labtech, Ortenberg, Germany).

BJ fibroblast cells = experiment: MTT cytotoxicity in normal BJ fibroblast cells; assay type: cell-based; settings: 24 h treatment
Experimental: as §1, §2

P70S6K/S6 pathway = experiment: Western blot of P70S6K and S6 phosphorylation; assay type: cell-based; settings: 10 µM, C6 cells, 8, 16 and 24 h post-treatment
Experimental: C6 cells were seeded in a 6-well plate with a density of 1 × 10^6 cells for 24 h. The cells were treated with THC and THC-di-Phe for 8, 16, and 24 h. The cells were washed in ice-cold phosphate-buffered saline (PBS) and lysed with ice-cold lysis buffer containing protease and phosphatase inhibitors. The cells in the lysis buffer were centrifuged at 14,000 rpm at 4 °C for 10 min. The protein concentration in the supernatant was quantified using Pierce™ BCA protein assay. After the quantification, equal amounts of protein were resolved by SDS–PAGE and transferred into a nitrocellulose membrane. The membranes were then blocked with 5% dry milk and probed with primary antibody including p70S6K, p-p70S6K, S6, p-S6 (Cell Signaling Technology (Beverly, MA, USA), followed by adding the species-specific horseradish […] conjugated secondary antibody (Cell Signaling Technology (Beverly, MA, USA). The membrane was incubated with a chemiluminescent detection kit solution, followed by X-ray film imaging to visualize protein levels. The level of phosphorylation of each protein was normalized to its normal form.

C6 glioma cells [2] = experiment: Hoechst 33342/PI double staining assay (apoptosis and necrosis); assay type: cell-based; settings: 20 and 40 µM and higher concentrations
Experimental: Apoptosis and necrosis were assessed using the Hoechst 33342/PI double staining assay (Sigma–Aldrich, St. Louis, MO, USA). After treatment, the cells were viewed using a fluorescence microscope (Olympus IX51 inverted microscope, Tokyo, Japan). Hoechst 33342 dye stains cells with blue color, either dead or alive. Apoptotic cells are indicated by condensed and fragmented chromatin. Propidium iodide (PI) stains cells in red, which can only stain damaged cells and is used as an indicator of cellular necrosis.

C6 glioma cells [3] = experiment: MTT cytotoxicity in C6 glioma cells; assay type: cell-based; settings: tested at 5 to 40 µM, Supplementary Figure S29
C6 glioma cells [4] = experiment: MTT cell viability of BCH and of THC-di-Phe with or without LAT1 inhibitor BCH; assay type: cell-based; settings: 24 h
Experimental: To investigate the role of THC-conjugated amino acid conjugates on LAT1, THC-amino acid conjugates were co-incubated with an inhibitor of LAT1 (BCH). The cells were seeded overnight at 2 × 10^4 cells/well in 96-well plates. Initially, the cells were treated with different concentrations of BCH (5, 10, and 20 mM) for 24 h, followed by the MTT assay to identify the maximum non-toxic concentration of BCH. Then, the cells were treated with THC-di-Phe at 12.5, 25, and 50 μM concentrations with or without 5 mM BCH for 24 h. The cell viability was measured by MTT assay.

C6 cells = experiment: Cell proliferation assay (MTT); assay type: cell-based; settings: 10 µM, 24 h and 48 h post-treatment
Experimental: The effects of THC-di-Phe on cell cancer proliferation were assessed using a cell proliferation assay. Briefly, C6 cells were seeded in a 96-well plate at a concentration of 5000 cells/well and then incubated overnight. Cells were then incubated with 10 µM THC and THC-di-Phe for 24 and 48 h. The morphology of the cells was observed under a light microscope. Then, the cells were incubated with MTT solution (0.5 mg/mL), and the formed formazan crystals were dissolved in DMSO. The absorbance was measured using a microplate reader (CLARIOstar®, BMG Labtech, Ortenberg, Germany) at the wavelength of 570 nm.

C6 glioma cells [5] = experiment: Cell scratch (wound closure, migration) assay; assay type: cell-based; settings: 10 µM, % of wound closure compared to 0 h; for wound closure at 24 h: control 71.4%; for wound closure at 48 h: control 100%
Experimental: Properties of cell migration were assayed using a cell scratch assay. Briefly, the cells were seeded in 24-well plates at a concentration of 100,000 cells/well, followed by treatment of the cells using 10 µM THC and 10 µM THC-di-Phe. The cell layers were then scrapped with a 200 µL pipette tip to form a wound. The ability of the cells to close the wound was observed under an inverted microscope (Nikon TS2, Tokyo, Japan) at 0, 24, and 48 h post-treatment. Wound closure was further analyzed using ImageJ software (version 1.53e, Wayne Rasband and contributors, National Institutes of Health, USA).

C6 glioma cells [6] = experiment: Annexin V/PI double staining by flow cytometry; assay type: cell-based; settings: 20 μM, 24 h, mean ± S.D., n = 3
Experimental: Annexin V/PI staining by flow cytometry was performed to indicate the stage of cell fate, including necrosis, early and late apoptosis, and viable cells. Briefly, the cells were treated with the THC and THC-di-Phe at 20 µM. After 24 h, the cells were harvested and further analyzed by flow cytometry. Annexin V/PI staining by flow cytometry was performed according to the manufacturer’s instructions (BioLegend, San Diego, CA, USA).

LAT1 = tested on: LAT1; parameters: method as in PMID 18520037; settings: BCH 3 mM, C6 glioma cells; cited from earlier work
C6 glioma cells [7] = tested on: C6 glioma cells; parameters: method as in PMID 18520037; settings: cited from earlier work
[8] = 24 h treatment, read-out: IC50 at 24 h, C6 cells
[9] = 48 h treatment, read-out: IC50 at 48 h, C6 cells

Work on “(Z)-2,2′-(((((3-Hydroxy-5-oxohept-3-ene-1,7-diyl)bis(2-methoxy-4,1-phenylene))bis(oxy))bis (carbonyl))bis(azanediyl))bis(4-methylpentanoic acid) [THC-di-Leu]” yielded an IC50 (C6 glioma cells [1]; [8]) of 350 ± 52.6 µM, an IC50 (C6 glioma cells [1]; [9]) of 350 ± 129 µM and an IC50 (BJ fibroblast cells) greater than 500 µM.

With “(Z)-2,2′-(((((3-Hydroxy-5-oxohept-3-ene-1,7-diyl)bis(2-methoxy-4,1-phenylene))bis(oxy))bis (carbonyl))bis(azanediyl))bis(3-phenylpropanoic acid) [THC-di-Phe]” the “phosphorylation of P70S6K and S6 compared to control” value (P70S6K/S6 pathway) was “significantly inhibited”, the “induction of cellular apoptosis (Hoechst 33342/PI)” value (C6 glioma cells [2]) was “observed” and the IC50 (C6 glioma cells [1]; [8]) was 35.8 µM. For the same compound, the IC50 (C6 glioma cells [1]; [9]) was 26.8 µM, the IC50 (BJ fibroblast cells) was 470 ± 20.4 µM and the “concentrations toxic to C6 glioma cells” value (C6 glioma cells [3]) was “above 10 µM”. The “cell death on co-incubation with BCH vs THC-di-Phe alone, lower concentrations” value (C6 glioma cells [4]; THC-di-Phe 12.5 and 25 μM, 5 mM BCH) was “significantly increased cell death”, the “cell death with or without BCH, higher concentrations” value (C6 glioma cells [4]; THC-di-Phe 50 and 100 μM, 5 mM BCH) was “comparable cellular death” and the “proliferation ability of C6 cells compared to the control” value (C6 cells) was “significantly inhibited”. The “wound closure at 24 h” value (C6 glioma cells [5]) was 32.8%, the “wound closure at 48 h” value (C6 glioma cells [5]) was 65.2% and the necrotic cell death (C6 glioma cells [6]) was 5.01 ± 0.64%. For the same compound, the “percentage of late apoptotic cells” value (C6 glioma cells [6]) was 6.07 ± 1.13%.

Compound “(Z)-2,2′-(((((3-Hydroxy-5-oxohept-3-ene-1,7-diyl)bis(2-methoxy-4,1 phenylene))bis(oxy))bis (carbonyl))bis(azanediyl))diacetic acid [THC-di-Gly]” has an IC50 (C6 glioma cells [1]; [8]) greater than 500 µM, an IC50 (C6 glioma cells [1]; [9]) greater than 500 µM and an IC50 (BJ fibroblast cells) greater than 500 µM.

In the case of `NC1(C(=O)O)CC2CCC1C2` (centres unmarked) [BCH, 2-Aminobicyclo-(2,2,1)-heptane-2-carboxylic acid], the “inhibition of LAT1 activity” value (LAT1) is listed as “completely inhibit”, the maximum non-toxic concentration (C6 glioma cells [4]; C6 glioma cells, MTT) is listed as 5 mM and the “cytotoxicity at 3 mM” value (C6 glioma cells [7]; BCH 3 mM, 24 h incubation) is listed as “no significant cytotoxicity”. The “cytotoxicity at 10 mM” value (C6 glioma cells [7]; BCH 10 mM) was “significant toxicity”.

In the case of `COc1cc(CCC(=O)CC(=O)CCc2ccc(O)c(OC)c2)ccc1O` [THC, Tetrahydrocurcumin], the “phosphorylation of P70S6K and S6 compared to control” value (P70S6K/S6 pathway) is reported as “did not significantly modulate”, the IC50 (C6 glioma cells [1]; [8]) is reported as 111 µM and the IC50 (C6 glioma cells [1]; [9]) is reported as 52.9 µM. The IC50 (BJ fibroblast cells; Homo sapiens) was 184 ± 31.8 µM, the “proliferation ability of C6 cells compared to the control” value (C6 cells) was “significant reduction of cell proliferation by THC was only observed 48 h post-treatment” and the “wound closure at 24 h” value (C6 glioma cells [5]) was 46.3%. The “wound closure at 48 h” value (C6 glioma cells [5]) was 81.4%, the necrotic cell death (C6 glioma cells [6]) was 2.73 ± 0.15% and the “percentage of late apoptotic cells” value (C6 glioma cells [6]) was 2.33 ± 0.32%.

“(Z)-2,2′-(((((3-Hydroxy-5-oxohept-3-ene-1,7-diyl)bis(2-methoxy-4,1-phenylene))bis(oxy))bis (carbonyl))bis(azanediyl))bis(3-methylpentanoic acid) [THC-di-Ile]” gave an IC50 (C6 glioma cells [1]; [8]) greater than 500 µM, an IC50 (C6 glioma cells [1]; [9]) greater than 500 µM and an IC50 (BJ fibroblast cells) greater than 500 µM.
